From patent US11345700B2, “Methods of preparing inhibitors of influenza viruses replication” (priority 2013, dated 2022)

Assays:
[1] = Human influenza challenge: safety assessment, adverse events; type: in vivo, healthy volunteers (humans)
From the text: A list of adverse events occurring in ≥10% of subjects in any treatment group is presented (Table 29). Influenza-like illness was the most frequently reported adverse event, and was reported by an approximately equal proportion of subjects in the placebo and Compound (1) groups.

[2] = tested on: influenza A/Wisconsin/67/2005 (H3N2) challenge strain virus; assay: Human influenza challenge: rates of seroconversion; type: in vivo, healthy volunteers (humans); conditions: for Serology Sero-conversion, n/N: ≥4-fold increase in anti-influenza antibody titer at Follow-up Visit vs baseline
[3] = Pooled Compound (1) dose groups

O=C(O)[C@H]1[C@H]2CC[C@H](CC2)[C@@H]1Nc1nc(-c2c[nH]c3ncc(F)cc23)ncc1F [Compound (1)]
Adverse event: Headache ([1]; 400 mg, N = 19): 4 (21.1) n(%)
Adverse event: Influenza-like illness ([1]; 400 mg, N = 19): 10 (52.6) n(%)
Adverse event: Malaise ([1]; 400 mg, N = 19): 0 n(%)
Adverse event: Nasal congestion ([1]; 400 mg, N = 19): 0 n(%)
Adverse event: Nausea ([1]; 400 mg, N = 19): 2 (10.5) n(%)
Adverse event: Oropharylngeal pain ([1]; 400 mg, N = 19): 0 n(%)
Adverse event: Rhinorrhea ([1]; 400 mg, N = 19): 2 (10.5) n(%)
Adverse event: Spirometry abnormal ([1]; 400 mg, N = 19): 4 (21.1) n(%)
Adverse event: Tension Headache ([1]; 400 mg, N = 19): 2 (10.5) n(%)
Adverse event: Alanine aminotransferase increased ([1]; 900/600 mg, N = 19): 0 n(%)
Adverse event: Aspartate aminotransferase increased ([1]; 900/600 mg, N = 19): 0 n(%)
Adverse event: Blood phosphorus decreased ([1]; 900/600 mg, N = 19): 6 (31.6) n(%)
Adverse event: Dermatitis contact ([1]; 900/600 mg, N = 19): 0 n(%)
Adverse event: Headache ([1]; 900/600 mg, N = 19): 0 n(%)
Adverse event: Influenza-like illness ([1]; 900/600 mg, N = 19): 9 (47.4) n(%)
Adverse event: Malaise ([1]; 900/600 mg, N = 19): 0 n(%)
Adverse event: Nasal congestion ([1]; 900/600 mg, N = 19): 0 n(%)
Adverse event: Nausea ([1]; 900/600 mg, N = 19): 1 (5.3) n(%)
Adverse event: Oropharylngeal pain ([1]; 900/600 mg, N = 19): 1 (5.3) n(%)
Adverse event: Rhinorrhea ([1]; 900/600 mg, N = 19): 0 n(%)
Adverse event: Spirometry abnormal ([1]; 900/600 mg, N = 19): 0 n(%)
Adverse event: Tension Headache ([1]; 900/600 mg, N = 19): 1 (5.3) n(%)
Adverse event: Alanine aminotransferase increased ([1]; 1200/600 mg, N = 18): 6 (33.3) n(%)
Adverse event: Aspartate aminotransferase increased ([1]; 1200/600 mg, N = 18): 2 (11.1) n(%)
Adverse event: Blood phosphorus decreased ([1]; 1200/600 mg, N = 18): 4 (22.2) n(%)
Adverse event: Dermatitis contact ([1]; 1200/600 mg, N = 18): 0 n(%)
Adverse event: Headache ([1]; 1200/600 mg, N = 18): 2 (11.1) n(%)
Adverse event: Influenza-like illness ([1]; 1200/600 mg, N = 18): 7 (38.9) n(%)
Adverse event: Malaise ([1]; 1200/600 mg, N = 18): 0 n(%)
Adverse event: Nasal congestion ([1]; 1200/600 mg, N = 18): 1 (5.6) n(%)
Adverse event: Nausea ([1]; 1200/600 mg, N = 18): 0 n(%)
Adverse event: Oropharylngeal pain ([1]; 1200/600 mg, N = 18): 0 n(%)
Adverse event: Rhinorrhea ([1]; 1200/600 mg, N = 18): 1 (5.6) n(%)
Adverse event: Spirometry abnormal ([1]; 1200/600 mg, N = 18): 4 (22.2) n(%)
Adverse event: Tension Headache ([1]; 1200/600 mg, N = 18): 0 n(%)
adverse event incidence: decreased blood phosphorus level ([1]; Compound (1) groups): 18.1%
adverse event incidence: nasal congestion ([1]; Compound (1) groups): 1.4%
adverse event incidence: rhinorrhea ([1]; Compound (1) groups): 4.2%
Adverse event: Alanine aminotransferase increased ([1]; Pooled Compound (1), N = 72): 10 (13.9) n(%)
Adverse event: Aspartate aminotransferase increased ([1]; Pooled Compound (1), N = 72): 4 (5.6) n(%)
Adverse event: Blood phosphorus decreased ([1]; Pooled Compound (1), N = 72): 13 (18.1) n(%)
Adverse event: Dermatitis contact ([1]; Pooled Compound (1), N = 72): 3 (4.2) n(%)
Adverse event: Headache ([1]; Pooled Compound (1), N = 72): 7 (9.7) n(%)
Adverse event: Influenza-like illness ([1]; Pooled Compound (1), N = 72): 34 (47.2) n(%)
Adverse event: Malaise ([1]; Pooled Compound (1), N = 72): 2 (2.8) n(%)
Adverse event: Nasal congestion ([1]; Pooled Compound (1), N = 72): 1 (1.4) n(%)
Adverse event: Nausea ([1]; Pooled Compound (1), N = 72): 3 (4.2) n(%)
Adverse event: Oropharylngeal pain ([1]; Pooled Compound (1), N = 72): 3 (4.2) n(%)
Adverse event: Rhinorrhea ([1]; Pooled Compound (1), N = 72): 3 (4.2) n(%)
Adverse event: Spirometry abnormal ([1]; Pooled Compound (1), N = 72): 10 (13.9) n(%)
Adverse event: Tension Headache ([1]; Pooled Compound (1), N = 72): 3 (4.2) n(%)
discontinuations due to Compound (1)-related adverse events; serious adverse events ([1]; healthy volunteers, five daily doses): no discontinuations
alanine aminotransferase (ALT) ([1]; observed in both placebo and Compound (1) recipients): elevations in alanine aminotransferase (ALT) were observed
Serology Sero-conversion (%) ([2]; 100 mg QD): (69%)
Serology Sero-conversion, n/N ([2]; 100 mg QD): 11/16
Serology Sero-conversion (%) ([2]; 400 mg QD): (47%)
Serology Sero-conversion, n/N ([2]; 400 mg QD): 9/19
Serology Sero-conversion (%) ([2]; 900/600 mg): (68%)
Serology Sero-conversion, n/N ([2]; 900/600 mg): 13/19
Serology Sero-conversion (%) ([2]; 1200/600 mg): (67%)
Serology Sero-conversion, n/N ([2]; 1200/600 mg): 12/18
Serology Sero-conversion (%) [2, 3]: (63%)
Serology Sero-conversion, n/N [2, 3]: 45/72
